Earlier results as cited in US5613958A, “Transdermal delivery systems for the modulated administration of drugs” (PP Holdings Inc., priority 1995, dated 1997).

Settings: for accumulation in plasma: during continuous ISDN therapy

Row | SMILES | antianginal efficacy (dose regimens letting IS-5-MN fall below 100 ng/ml before next dose) | accumulation in plasma | rate of elimination (metabolite of ISDN)
1 | O=[N+]([O-])O[C@@H]1CO[C@H]2[C@@H]1OC[C@@H]2O [IS-5-MN, isosorbide 5-mononitrate] | continuous antianginal efficacy | accumulate in the plasma | slowest rate of elimination
2 | O=[N+]([O-])O[C@H]1CO[C@H]2[C@@H]1OC[C@H]2O [IS-2-MN, isosorbide 2-mononitrate] |  | accumulate in the plasma | 
